pIC50: −log10 of the molar value.
What was measured:
[1] = biological target: PDGFRβ kinase (Homo sapiens (Human), UniProt P09619); assay: PDGFRβ Kinase Assay (biochemical, poly-Glu-Tyr ELISA); details: purified cytoplasmic domain PDGFR-b protein, 36 μM ATP
Protocol: Biochemical PDGFR3 kinase assays were performed in 96 well microtiter plates that were coated overnight with 75 μg of poly-Glu-Tyr (4:1) in 10 mM Phosphate Buffered Saline (PBS), pH 7.4. The coated plates were washed with 2 mls per well PBS+0.05% Tween-20 (PBS-T), blocked by incubation with PBS containing 1% BSA, then washed with 2 mls per well PBS-T prior to starting the reaction. Reactions were carried out in 100 μL reaction volumes containing 36 μM ATP in kinase buffer (50 mM Hepes buffer pH 7.4, 20 mM MgCl2, 0.1 mM MnCl2 and 0.2 mM Na3VO4). Test compounds were reconstituted in 100% DMSO and added to the reaction to give a final DMSO concentration of 5%. Reactions were initiated by the addition 20 ul per well of kinase buffer containing 200-300 ng purified cytoplasmic domain PDGFR-b protein (Millipore). Following a 60 minute incubation at 30° C., the reactions were washed 2 mls per well PBS-T. 100 μl of a monoclonal anti-phosphotyrosine antibody-peroxidase conjugate diluted 1:10,000 in PBS-T was added to the wells for 30 minutes. Following a 2 mls per well wash with PBS-Tween-20, 100 μl of O-Phenylenediamine Dihydrochloride in phosphate-citrate buffer, containing urea hydrogen peroxide, was added to the wells for 7-10 minutes as a colorimetric substrate for the peroxidase. The reaction was terminated by the addition of 100 μl of 2.5N H2SO4 to each well and read using a microplate ELISA reader set at 492 nm. IC50 values for compound inhibition were calculated directly from graphs of optical density (arbitrary units) versus compound concentration following subtraction of blank values.

[2] = biological target: VEGFR2 (KDR) kinase (Homo sapiens (Human), UniProt P35968); assay: VEGFR2 Kinase Assay (biochemical KDR kinase assay, poly-Glu-Tyr ELISA); details: purified cytoplasmic domain KDR protein, 2.7 μM ATP
VEGFR2 (KDR) kinase, sequence (P35968 786-1356, species assumed): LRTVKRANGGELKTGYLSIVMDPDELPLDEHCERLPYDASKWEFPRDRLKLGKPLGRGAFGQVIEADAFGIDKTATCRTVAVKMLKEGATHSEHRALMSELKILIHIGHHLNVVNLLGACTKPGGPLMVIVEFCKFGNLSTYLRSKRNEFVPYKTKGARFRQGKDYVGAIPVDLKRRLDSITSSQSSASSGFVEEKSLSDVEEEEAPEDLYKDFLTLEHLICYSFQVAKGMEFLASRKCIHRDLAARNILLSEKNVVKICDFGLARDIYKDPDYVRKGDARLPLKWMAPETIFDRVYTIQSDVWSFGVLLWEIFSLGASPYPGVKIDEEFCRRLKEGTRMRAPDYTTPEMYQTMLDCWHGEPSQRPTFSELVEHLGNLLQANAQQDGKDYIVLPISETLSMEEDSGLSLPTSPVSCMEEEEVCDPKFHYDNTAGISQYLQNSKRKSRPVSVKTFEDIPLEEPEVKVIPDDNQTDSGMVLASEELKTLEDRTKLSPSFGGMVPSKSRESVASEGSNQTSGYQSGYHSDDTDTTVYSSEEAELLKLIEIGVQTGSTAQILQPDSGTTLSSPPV
Protocol: VEGFR2 kinase potency of select analogs was determined by the following assay:
Biochemical KDR kinase assays were performed in 96 well microtiter plates that were coated overnight with 75 μg/well of poly-Glu-Tyr (4:1) in 10 mM Phosphate Buffered Saline (PBS), pH 7.4. The coated plates were washed with 2 mls per well PBS+0.05% Tween-20 (PBS-T), blocked by incubation with PBS containing 1% BSA, then washed with 2 mls per well PBS-T prior to starting the reaction. Reactions were carried out in 100 μL reaction volumes containing 2.7 μM ATP in kinase buffer (50 mM Hepes buffer pH 7.4, 20 mM MgCl2, 0.1 mM MnCl2 and 0.2 mM Na3VO4). Test compounds were reconstituted in 100% DMSO and added to the reaction to give a final DMSO concentration of 5%. Reactions were initiated by the addition 20 ul per well of kinase buffer containing 200-300 ng purified cytoplasmic domain KDR protein (BPS Bioscience, San Diego, Calif.). Following a 15 minute incubation at 30° C., the reactions were washed 2 mls per well PBS-T. 100 μl of a monoclonal anti-phosphotyrosine antibody-peroxidase conjugate diluted 1:10,000 in PBS-T was added to the wells for 30 minutes. Following a 2 mis per well wash with PBS-Tween-20, 100μl of O-Phenylenediamine Dihydrochloride in phosphate-citrate buffer, containing urea hydrogen peroxide, was added to the wells for 7-10 minutes as a colorimetric substrate for the peroxidase. The reaction was terminated by the addition of 100 μl of 2.5N H2SO4 to each well and read using a microplate ELISA reader set at 492 nm. IC50 values for compound inhibition were calculated directly from graphs of optical density (arbitrary units) versus compound concentration following subtraction of blank values.

PDGFRβ kinase, sequence (P09619 554-1106): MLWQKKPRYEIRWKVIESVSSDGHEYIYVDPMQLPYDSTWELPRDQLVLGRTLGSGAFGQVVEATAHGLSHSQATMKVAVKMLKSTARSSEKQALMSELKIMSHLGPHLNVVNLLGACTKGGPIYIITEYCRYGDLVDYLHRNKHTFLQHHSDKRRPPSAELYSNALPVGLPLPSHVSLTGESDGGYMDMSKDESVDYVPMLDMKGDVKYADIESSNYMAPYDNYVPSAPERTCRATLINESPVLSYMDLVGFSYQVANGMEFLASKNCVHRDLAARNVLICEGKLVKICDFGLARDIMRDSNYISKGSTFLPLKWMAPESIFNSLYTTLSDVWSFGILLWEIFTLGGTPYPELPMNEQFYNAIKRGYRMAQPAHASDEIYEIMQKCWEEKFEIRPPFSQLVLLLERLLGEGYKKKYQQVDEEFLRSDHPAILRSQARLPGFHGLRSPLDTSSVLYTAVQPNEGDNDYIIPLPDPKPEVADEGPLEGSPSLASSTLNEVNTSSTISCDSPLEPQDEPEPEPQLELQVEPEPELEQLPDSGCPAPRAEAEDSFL

Row | Compound | pIC50 [1] | pIC50 [2]
1 | Cc1ccn(-c2ccc(C(C)(C)C)cc2)c(=O)c1N1CCc2nc(N)ncc2C1 [Example 4, 3-(2-amino-7,8-dihydropyrido[4,3-d]pyrimidin-6(5H)-yl)-1-(4-tert-butylphenyl)-4-methylpyridin-2(1H)-one] | 6.42 | 7.07
2 | CC(C)(C)c1ccc(-n2cccc(N3CCc4nc(N)ncc4C3)c2=O)cc1 [Example 2, 3-(2-amino-7,8-dihydropyrido[4,3-d]pyrimidin-6(5H)-yl)-1-(4-(tert-butyl)phenyl)pyridin-2(1H)-one] | 6.18 | 6.54
3 | Cc1ccoc1C(=O)Nc1ccc(-n2ccc(C)c(N3CCc4nc(N)ncc4C3)c2=O)cc1 [Example 17, N-{4-[3-(2-amino-7,8-dihydropyrido[4,3-d]pyrimidin-6(5H)-yl)-4-methyl-2-oxopyridin-1(2H)-yl]phenyl}-3-methyl-2-furamide] | 7.48 | 7.54

Now from value to molecule:

Row | pIC50 [1] | pIC50 [2] | Compound
4 | 5.41 | < 5.00 | Cc1cc[nH]c(=O)c1N1CCc2nc(N)ncc2C1 [Example 3, 3-(2-amino-7,8-dihydropyrido[4,3-d]pyrimidin-6(5H)-yl)-4-methylpyridin-2(1H)-one]
5 | < 6.00 | 6.49 | Cc1ccn(-c2cccc(N(C)C)c2)c(=O)c1N1CCc2nc(N)ncc2C1 [Example 14, 3-(2-amino-7,8-dihydropyrido[4,3-d]pyrimidin-6(5H)-yl)-1-[3-(dimethylamino)phenyl]-4-methylpyridin-2(1H)-one]

From US9321766B1, “Kinase inhibitors” (Allergan, Inc., priority 2014, dated 2016)
